Entries after “also recorded” stand apart in the source; their conditions may differ.
These compounds were tested on cartilage disks of juvenile rabbits, IL-1 stimulated GAG release (assay: Cartilage culture test (IL-1 induced GAG release)). Settings: stated in text for the compound of FIG. 1.
Assay type: cell-based, rabbit
Method: Cartilage disks (2 mm in diameter) were prepared from the cartilage of juvenile rabbits (3 weeks). Cartilage disks were transferred and cultured individually in the wells of a 48-well tissue culture plate containing DMEM/10% FCS for over 3 days at 37° C. In the night before the test, the medium of DMEM was changed to that not containing FCS. Next morning, IL-1 (4 ng/ml) and a test compound were added to the plate. It is provided that some wells of a plate contain only IL-1 (not containing test compound) and that some wells are vehicle (not containing IL-1 and test compound). After 4 days from the IL-1 addition, the amount of released glycosaminoglycan (GAG) was measured after collecting culture supernatant and cartilage disks.
Quantitation of GAG release was as follows; the weight of the cartilage disk was measured, then 200 μl of a papain digestion buffer solution (1 mM EDTA, 2 mM DTT, 20 mM Tris, (pH 7.0), Papain (300 μg/ml)) was added to each well and the plate containing the digestive solution was incubated for 2 h at 65° C. 50 μl of 100 mM Iodoacetatic acid (pH 7.0) was added for stopping the digestion. The extracts of cartilage are centrifuged at 12000 rpm for 5 min. […] The amount of released GAG in the transferred solution was quantitated by using a proteoglycan & glycosaminoglycan assay kit (Blyscan, Funakoshi Co., Ltd, Tokyo, Japan).

SMILES	GAG value
CC(C)C(NS(=O)(=O)c1ccc(Oc2ccccc2)cc1)C(=O)NO (stereo not shown) [XXI]	87

The compounds below were run on aggrecanase (assay: Aggrecanase inhibitory activity test (western blot with anti ARGSV antibody)). Settings: 4 days culture supernatant containing both IL-1 and test compound.
Assay type: cell-based, rabbit
Method: To 50 μl of the above 4 days cultured supernatant (not including IL-1 and a test compound, including IL-1 only, including both IL-1 and a test compound) was added a 5 volume solution of 95% EtOH containing 1.3% (w/v) potassium acetate. After the mixed solution was stood at −20° C. for 30 min, the solution was centrifuged to obtain a precipitation. The precipitation was solubilized in 100 μl of 25 mM Tris-hydrochloric acid buffer solution (pH7.6) containing 5 mM calcium chloride*0.15M sodium chloride*0.0025% Brij35. After addition of 5 μl of 250 mM ethylenediaminetetraacetic acid, and 2.5 μl each of 1M sodium acetate (pH6.0) and 1M Tris-hydrochloric acid (pH7.9) to the solution, 2.5 μl of 0.02 units/μl Chondroitinase ABC and 1.0 μl of 0.1 units/μl Keratanase (Both are Seikagaku Kogyo, Japan) were added and the mixture was incubated at 37° C. for 16 h to remove GAG. […]
In the culture supernatant containing only IL-1, the 250 kDa aggrecanase-generated fragment of aggrecan which was recognized by anti N-terminus neoepitope antibody was observed, which was not detected in the supernatant not containing IL-1 and a test compound (XXI). On the other hand, in the culture supernatant containing both IL-1 and a test compound (XXI), the 250 kDa aggrecanase-generated fragment was not detected.

SMILES	250 kDa aggrecanase-generated fragment of aggrecan (new N-terminus ARGSV), western blot
CC(C)C(NS(=O)(=O)c1ccc(Oc2ccccc2)cc1)C(=O)NO (stereo not shown) [XXI]	inhibits the production of aggrecanase-generated new N-terminus (ARGSV); also recorded: not detected

What follows are compounds tested against T1, MMP-13 (Homo sapiens, UniProt P45452) (assay: Assay for inhibitory activities on MMP-13). Settings: catalytic domain, substrate MOCAc-Pro-Leu-Gly-Leu-A2Pr(DNP)-Ala-Arg-NH2; read-out: MMP-13 (IC50μM).
T1 construct: catalytic domain (^104Tyr˜^267Gly) was amplified with RT-PCR; His-tag; enterokinase digestion-site; made in house
Assay type: biochemical
Method: In regard to MMP-13, mRNA was prepared from carcinoma cell SW1353 derived from human cartilage stimulate by IL-1, TNF and catalytic domain (^[…]) was amplified with RT-PCR. This was cloned in Escherichia. coli expression vector […] inserted with His-tag sequence and enterokinase digestion-site, induced and expressed by IPTG (Isopropyl-β-D-thiogalactopyranoside) and expressed in a insoluble fraction. Isolation of MMP-13 from an insoluble fraction was carried out by dissolving in modifier (6M urea) by a usual method and purification with metal chelate chromatography (Ni […] Sepharose). […] The enzymatic activity on MMP was analyzed by the method described in “C. Graham Knight, Frances Willenbrock and Gillian Murphy: A novel coumarin-labelled peptide for sensitive continuous assays of the matrix metalloproteinases: […] The substrate: MOCAc-[…] was purchased from Peptide Institute, Inc., Osaka, Japan.

IC50 [µM]	SMILES
0.0029	O=C(O)[C@@H](Cc1ccccc1)NS(=O)(=O)c1ccc(-c2ncc(-c3ccc(Br)cc3)s2)cc1 [Compound A-6]
0.0209	CSc1ccc(-c2ccc(S(=O)(=O)NC(C)C(=O)O)cc2)cc1 (stereo not shown) [Compound E-4]
0.0142	CCSc1ccc(-c2ccc(S(=O)(=O)NC(Cc3ccccc3)C(=O)O)cc2)cc1 (stereo not shown) [Compound E-16]
0.0485	CSc1ccc(-c2nnn(-c3ccc(S(=O)(=O)N[C@H](Cc4ccccc4)C(=O)O)cc3)n2)cc1 [Compound J-1]

The remaining lines, values behind:

SMILES	IC50 [µM]
O=C(O)[C@H](CO)NS(=O)(=O)c1ccc(C#Cc2ccc3c(c2)OCO3)cc1 [Compound G-12]	0.147
CC1C(=O)NCCN1S(=O)(=O)c1ccc(-c2ccc(N3CCOCC3)cc2)s1 (stereo not shown) [Compound O-8]	2.99
Cc1ccc(-c2ccc(-c3ccc(S(=O)(=O)NCC(=O)O)s3)s2)cc1 [Compound L-4]	0.281
C[C@@H](NS(=O)(=O)c1ccc(-c2ncc(-c3ccc4ccccc4c3)s2)cc1)C(=O)O [Compound A-12]	0.012
CC(C)C[C@@H](NS(=O)(=O)c1ccc(-c2ncc(-c3ccc(Cl)c(Cl)c3)s2)cc1)C(=O)O [Compound A-24]	0.0482
O=C(O)[C@@H](Cc1c[nH]c2ccccc12)NS(=O)(=O)c1ccc(-c2ncc(-c3ccc(F)c(F)c3)s2)cc1 [Compound A-14]	0.0061
COc1ccc(-c2ccc(S(=O)(=O)N[C@H](CCSC)C(=O)O)s2)cc1 [Compound F-6]	0.0376

Reference: US20050227994A1, “Decomposition inhibitor for extracellular matrix of cartilage” (Shionogi & Co., Ltd., priority 2002, published 2005)
